The assay concerns the target T1, hTRPV3 (Homo sapiens, UniProt Q8NET8).
T1 construct: The commercially available plasmid with the full-length cDNA of hTRPV3 (791 aa) (NM_001258205.2); host or cells: HEK293T
T1 sequence (Q8NET8 1-791 isoform Q8NET8-2): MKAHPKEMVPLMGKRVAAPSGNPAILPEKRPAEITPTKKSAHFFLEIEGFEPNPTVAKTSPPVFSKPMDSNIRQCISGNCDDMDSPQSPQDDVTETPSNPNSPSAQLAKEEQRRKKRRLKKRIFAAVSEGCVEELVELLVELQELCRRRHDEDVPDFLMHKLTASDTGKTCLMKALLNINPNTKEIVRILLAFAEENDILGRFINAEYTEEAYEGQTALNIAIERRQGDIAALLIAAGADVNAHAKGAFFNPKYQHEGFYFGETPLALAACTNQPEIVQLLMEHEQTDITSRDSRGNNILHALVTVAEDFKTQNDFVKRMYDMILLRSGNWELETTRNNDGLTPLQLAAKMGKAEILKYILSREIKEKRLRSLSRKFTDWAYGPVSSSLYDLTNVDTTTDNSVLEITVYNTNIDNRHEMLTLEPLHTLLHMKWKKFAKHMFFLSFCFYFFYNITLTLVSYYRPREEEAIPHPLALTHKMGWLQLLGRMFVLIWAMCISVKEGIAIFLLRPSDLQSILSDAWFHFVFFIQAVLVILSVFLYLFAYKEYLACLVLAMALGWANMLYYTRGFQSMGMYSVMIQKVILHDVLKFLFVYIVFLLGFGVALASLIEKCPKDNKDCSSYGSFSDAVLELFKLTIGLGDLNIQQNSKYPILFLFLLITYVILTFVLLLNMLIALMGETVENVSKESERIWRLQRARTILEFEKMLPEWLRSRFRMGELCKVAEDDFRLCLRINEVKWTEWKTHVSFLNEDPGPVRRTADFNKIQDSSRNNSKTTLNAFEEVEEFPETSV
As to the kind of experiment: Whole-cell patch-clamp recording of hTRPV3 current in transfected HEK293T cells (2-APB induced). The assay is classed as cell-based. The following applies: current induced by 300 μM 2-APB, compounds tested up to 10 μM, room temperature. Here is the method: Various technologies can be utilized to assess TRPV3 activation in accordance with the present disclosure. For example, in some embodiments, compounds are assessed in in vitro patch clamp experiments. Certain useful procedures are described herein as examples.
In some embodiments, whole-cell patch-clamp recordings were used to detect the current through hTRPV3 channels in the HEK293T cell line transfected with hTRPV3 cDNA and evaluate the exact blocking effect of compounds on hTRPV3. In some embodiments, a perfusion system was adopted to control the extracellular solution, including the addition of the agonist and different antagonists.
HEK293T cells were cultured in a Dulbecco's modified Eagle's medium containing 10% fetal bovine serum (Thermo Scientific) and 1% penicillin/streptomycin (Thermo Scientific) at 37° C. with 5% CO2. The commercially available plasmid with the full-length cDNA of hTRPV3 (791 aa) (NM_001258205.2) was purchased from OriGene Technologies. The transfection of hTRPV3 plasmids was conducted using Lipofectamine™ 3000 following the manufacturer's instructions (Invitrogen).
Whole-cell patch-clamp experiments were performed 18 h post-transfection, using a MultiClamp 700B amplifier driven by pClamp 11 software (Molecular Devices). In order to achieve good single-cell physical separation, HEK293T cells with hTRPV3 expression were digested and then re-plated at low density on glass coverslips. Electrodes were pulled from borosilicate glass with a P-97 micropipette puller (Sutter Instruments) and those with resistances of 3-5 MΩ are used for experiments. In some embodiments, an Ag—AgCl wire was used as a reference electrode and signals are filtered using a 2.9 kHz low-pass Bessel filter. Membrane potential was held at 0 mV. For recording of agonist-induced activation and inhibition by different test compounds, currents were elicited by a protocol consisting of a 400-ms step to +80 mV, followed by a 400-ms step to −80 mV at 2-s intervals. both pipette and bath solutions contained 130 mM NaCl, 0.3 mM EDTA, and 3 mM HEPES (buffered to pH 7.4 with NaOH). All recordings were made at room temperature.
All patch-clamp recordings were analyzed using the Clampfit software and GraphPad Prism 6.0 software. Specifically, data are analyzed by calculating the degree of current amplitude after the test compound addition compared with the unblocked agonist-induced current amplitude. The resulting blocking percentage at each concentration was used to make a concentration-response analysis and fitted to the Hill equation: blocking percentage=minimum blocking percentage+ (maximum blocking percentage-minimum blocking percentage)/(1+10^(Hill slope* […])). The minimum blocking percentage is 0% and maximum blocking percentage is 100%, while the Hill slope and the IC50 were determined as the curve fitting routine. Compounds of interest were tested against hTRPV3 at concentrations up to 10 μM, and certain data was used to estimate IC50 as described herein.
In general terms: Patch clamp records ionic current or voltage across a cell membrane.

SMILES strings stand for the structures.

The term IC50 denotes the concentration at which inhibition is half-maximal. `COc1ncnc(OC)c1C(=O)Nc1nc2c(s1)COc1cc(C(F)(F)F)ccc1-2` [compound 1, 4,6-dimethoxy-N-(7-(trifluoromethyl)-4H-chromeno[4,3-d]thiazol-2-yl)pyrimidine-5-carboxamide] showed an IC50 of 100 to 1000 nM.

The compound `COc1ncnc(OC)c1C(=O)Nc1nc2c(s1)CCc1ccccc1-2` [compound 2, N-(4,5-dihydronaphtho[1,2-d]thiazol-2-yl)-4,6-dimethoxypyrimidine-5-carboxamide] came in with an IC50 of at least 10000 nM.

Regarding `COc1ncnc(OC)c1C(=O)Nc1nc2c(s1)CCc1ccc(Cl)cc1-2` [compound 3, N-(8-chloro-4,5-dihydronaphtho[1,2-d]thiazol-2-yl)-4,6-dimethoxypyrimidine-5-carboxamide], the IC50 fell in the range of 1000 to 10000 nM.

Compound `COc1ncnc(OC)c1C(=O)Nc1nc2c(s1)CCCc1ccccc1-2` [compound 4, N-(5,6-dihydro-4H-benzo[6,7]cyclohepta[1,2-d]thiazol-2-yl)-4,6-dimethoxypyrimidine-5-carboxamide] showed an IC50 of at least 10000 nM.

Regarding `COc1ncnc(OC)c1C(=O)Nc1nc2c(s1)CSc1ccc(Cl)cc1-2` [compound 5, N-(8-chloro-4H-thiochromeno[4,3-d]thiazol-2-yl)-4,6-dimethoxypyrimidine-5-carboxamide], the concentration for half-maximal inhibition (IC50) was at least 10000 nM.

In turn, `COc1ncnc(OC)c1C(=O)Nc1nc2c(s1)COc1cc(Br)ccc1-2` [compound 6, N-(7-bromo-4H-chromeno[4,3-d]thiazol-2-yl)-4,6-dimethoxypyrimidine-5-carboxamide] gave an IC50 of at least 10000 nM.

`COc1ncnc(OC)c1C(=O)Nc1nc2c(s1)Cc1ccc(Cl)cc1-2` [compound 7, N-(5-chloro-8H-indeno[1,2-d]thiazol-2-yl)-4,6-dimethoxypyrimidine-5-carboxamide] gave a half-inhibitory concentration (IC50) of 1000 to 10000 nM.

Consider `COc1ncnc(OC)c1C(=O)Nc1nc2c(s1)C(C)(C)Oc1cc(C(F)(F)F)ccc1-2` [compound 8, N-(4,4-dimethyl-7-(trifluoromethyl)-4H-chromeno[4,3-d]thiazol-2-yl)-4,6-dimethoxypyrimidine-5-carboxamide], for which the IC50 is 100 to 1000 nM.

`COc1ncnc(OC)c1C(=O)Nc1nc2c(s1)c(=O)oc1cc(C(F)(F)F)ccc12` [compound 9, 4,6-dimethoxy-N-(4-oxo-7-(trifluoromethyl)-4H-chromeno[4,3-d]thiazol-2-yl)pyrimidine-5-carboxamide] yielded an IC50 of at least 10000 nM.

For the compound `COc1ncnc(OC)c1C(=O)Nc1nc2c(s1)COc1cc(F)ccc1-2` [compound 10, N-(7-fluoro-4H-chromeno[4,3-d]thiazol-2-yl)-4,6-dimethoxypyrimidine-5-carboxamide], the IC50 is at least 10000 nM.

`COc1ccc2c(c1)OCc1sc(NC(=O)c3c(OC)ncnc3OC)nc1-2` [compound 11, 4,6-dimethoxy-N-(7-methoxy-4H-chromeno[4,3-d]thiazol-2-yl)pyrimidine-5-carboxamide] gave an IC50 of at least 10000 nM.

Take `COc1ncnc(OC)c1C(=O)Nc1nc2c(s1)C1(CCCN(C(=O)OC(C)(C)C)C1)Oc1cc(C(F)(F)F)ccc1-2` (stereo not drawn) [compound 12, tert-butyl 2-(4,6-dimethoxypyrimidine-5-carboxamido)-7-(trifluoromethyl)spiro[chromeno[4,3-d]thiazole-4,3′-piperidine]-1′-carboxylate]: the IC50 lay within 100 to 1000 nM.

For the compound `COc1ncnc(OC)c1C(=O)Nc1nc2c(s1)C1(CCCCC1)Oc1cc(C(F)(F)F)ccc1-2` [compound 13, 4,6-dimethoxy-N-(7-(trifluoromethyl)spiro[chromeno[4,3-d]thiazole-4,1′-cyclohexan]-2-yl)pyrimidine-5-carboxamide], the IC50 was under 100 nM.

Turning to `COc1ncnc(OC)c1C(=O)Nc1nc2c(s1)COc1cc(OC(=O)C(C)(C)C)ccc1-2` [compound 14, 2-(4,6-dimethoxypyrimidine-5-carboxamido)-4H-chromeno[4,3-d]thiazol-7-yl pivalate], the IC50 was in the range of 1000 to 10000 nM.

In turn, `COc1ncnc(OC)c1C(=O)Nc1nc2c(s1)COc1c-2cccc1C(F)(F)F` [compound 15, 4,6-dimethoxy-N-(6-(trifluoromethyl)-4H-chromeno[4,3-d]thiazol-2-yl)pyrimidine-5-carboxamide] came in with an IC50 of at least 10000 nM.

The compound `COc1ncnc(OC)c1C(=O)Nc1nc2c(s1)COc1ccc(C)cc1-2` [compound 16, 4,6-dimethoxy-N-(8-methyl-4H-chromeno[4,3-d]thiazol-2-yl)pyrimidine-5-carboxamide] had an IC50 of at least 10000 nM.

Take `COc1ccc2c(c1)-c1nc(NC(=O)c3c(OC)ncnc3OC)sc1CO2` [compound 17, 4,6-dimethoxy-N-(8-methoxy-4H-chromeno[4,3-d]thiazol-2-yl)pyrimidine-5-carboxamide]: the IC50 is at least 10000 nM.

With `COc1ncnc(OC)c1C(=O)Nc1nc2c(s1)C1(CCC(C(C)(C)C)CC1)Oc1cc(C(F)(F)F)ccc1-2` (stereo not drawn) [compound 18, N-(4′-(tert-butyl)-7-(trifluoromethyl)spiro[chromeno[4,3-d]thiazole-4,1′-cyclohexan]-2-yl)-4,6-dimethoxypyrimidine-5-carboxamide], the IC50 was 1000 to 10000 nM.

Consider `COc1ncnc(OC)c1C(=O)NC1=NC2c3ccc(C(F)(F)F)cc3OC3(CCC3)C2S1` (stereo not drawn) [compound 19, 4,6-dimethoxy-N-(7-(trifluoromethyl)-3a,9b-dihydrospiro[chromeno[4,3-d]thiazole-4,1′-cyclobutan]-2-yl)pyrimidine-5-carboxamide], for which the IC50 lay within 100 to 1000 nM.

Consider `COc1ncnc(OC)c1C(=O)Nc1nc2c(s1)C1(Oc3cc(C(F)(F)F)ccc3-2)C2CC3CC(C2)CC1C3` (stereo not drawn) [compound 20, 4,6-dimethoxy-N-(7′-(trifluoromethyl)spiro[adamantane-2,4′-chromeno[4,3-d]thiazol]-2′-yl)pyrimidine-5-carboxamide], for which the IC50 is 100 to 1000 nM.

`COc1ncnc(OC)c1C(=O)Nc1nc2c(s1)C1(CCOC1)Oc1cc(C(F)(F)F)ccc1-2` (stereo not drawn) [compound 21, 4,6-dimethoxy-N-(7-(trifluoromethyl)-4′,5′-dihydro-2′H-spiro[chromeno[4,3-d]thiazole-4,3′-furan]-2-yl)pyrimidine-5-carboxamide] yielded an IC50 of 100 to 1000 nM.

With `COc1ncnc(OC)c1C(=O)Nc1nc2c(s1)CCc1cc(C(F)(F)F)ccc1-2` [compound 22, 4,6-dimethoxy-N-(7-(trifluoromethyl)-4,5-dihydronaphtho[1,2-d]thiazol-2-yl)pyrimidine-5-carboxamide], the IC50 was at least 10000 nM.

As to `COc1ncnc(OC)c1C(=O)Nc1nc2c(s1)C1(CCCC1)Oc1cc(C(F)(F)F)ccc1-2` [compound 23, 4,6-dimethoxy-N-(7-(trifluoromethyl)spiro[chromeno[4,3-d]thiazole-4,1′-cyclopentan]-2-yl)pyrimidine-5-carboxamide], the IC50 lay within 100 to 1000 nM.

For the compound `CCC1(CC)Oc2cc(C(F)(F)F)ccc2-c2nc(NC(=O)c3c(OC)ncnc3OC)sc21` [compound 24, N-(4,4-diethyl-7-(trifluoromethyl)-4H-chromeno[4,3-d]thiazol-2-yl)-4,6-dimethoxypyrimidine-5-carboxamide], the IC50 is under 100 nM.

The values above are taken from patent publication US20260217697A1, “COMPOUNDS COMPRISING HETEROARYL RINGS AND COMPOSITIONS AND METHODS THEREOF” (lonGen Therapeutics Co., Ltd., priority 2022, published 2026).
